The target in experiment [1] is Angiotensin II receptor (Cavia porcellus). Nature of the experiment: Inhibitory activity as antagonist of AII on guinea pig ileum.
For experiment [2], the species on record is Cavia porcellus. Nature of the experiment: The compound was tested for its inhibitory activity as antagonist of AI on guinea pig ileum. It counts as functional, organism-based.
The target of experiment [3] is Angiotensin II receptor (Cavia porcellus). Briefly: The compound was tested for its inhibitory activity as antagonist of AII on guinea pig ileum.
In experiment [4] the test system is Angiotensin II receptor (Oryctolagus cuniculus). Nature of the experiment: Displacement of [3H]Angiotensin II (300 ng/mL) from rabbit adrenal cortex.

Each structure is given as a SMILES string. Peptide text beside a SMILES is read from it. * marks the point of attachment. Propanoyl(3-(4-MeO-Ph)) = COc1ccc(CCC(=O)*)cc1; Desaminotyrosyl = O=C(CCc1ccc(O)cc1)*; Cbz = O=C(OCc1ccccc1)*

For orientation: IC50 means the point on the concentration scale where inhibition reaches its midpoint. A higher IC50 goes with weaker potency. Regarding `CC[C@H](C)[C@H](NC(=O)[C@@H]1CCCN1C(=O)[C@H](Cc1c[nH]cn1)N[C@H](C(N)=O)[C@@H](NC(=O)[C@H](Cc1ccc(O)cc1)NC(=O)[C@@H](NC(=O)[C@H](CCCN=C(N)N)NC(=O)CNC)C(C)C)C(C)C)C(=O)O`, the IC50 in experiment [1] is 330 nM; in experiment [2], 345 nM.
Take `CC[C@H](C)[C@H](NC(=O)[C@@H]1CCCN1C(=O)[C@H](Cc1c[nH]cn1)NC(C(N)=O)[C@@H](NC(=O)OCc1ccccc1)C(C)C)C(=O)O` (some centres undefined): the IC50 in experiment [3] and in experiment [2] was over 15000 nM each time.
Turning to `CC[C@H](C)[C@H](NC(=O)[C@H](Cc1ccc(O)cc1)NC(=O)[C@@H](NC(=O)[C@H](CCCN=C(N)N)NC(=O)CNC)C(C)C)C(=O)N[C@@H](Cc1c[nH]cn1)C(=O)N1CCC[C@H]1C(=O)N[C@@H](C)C(=O)O`, in experiment [2], the IC50 stood at 0.56 nM.
On the same count and under the same terms, in the case of `CC[C@H](C)[C@H](NC(=O)[C@@H]1CCCN1C(=O)[C@H](Cc1c[nH]cn1)NC(=O)[C@@H](NC(=O)[C@H](Cc1ccc(O)cc1)NC(=O)[C@@H](NC(=O)[C@H](CCCN=C(N)N)NC(=O)CNC)C(C)C)[C@@H](C)CC)C(=O)O` it was 0.17 nM.
`CC[C@H](C)[C@H](NC(=O)[C@@H]1CCCN1C(=O)[C@H](Cc1c[nH]cn1)NC(=O)[C@@H](NC(=O)[C@H](Cc1ccc(O)cc1)NC(=O)[C@@H](NC(=O)[C@H](CCCN=C(N)N)NC(=O)CNC)C(C)C)C(C)C)C(=O)O`: the IC50 was 0.45 nM in experiment [1] and 0.51 nM in experiment [2]. For the same compound, the Displacement in experiment [4] stood at 100%.
For the compound `CC[C@H](C)[C@H](NC(=O)[C@@H]1CCCN1C(=O)[C@H](Cc1c[nH]cn1)NC(=O)[C@@H](NC(=O)OCc1ccccc1)C(C)C)C(=O)O` (Cbz-VHPI-OH), the IC50 in experiment [1] and in experiment [2] was over 15000 nM in each case. Further, in experiment [4], the Displacement was determined as 10%.
Take `CC[C@H](C)[C@H](NC(=O)[C@@H]1CCCN1C(=O)[C@H](Cc1c[nH]cn1)NC(=O)[C@@H](NC(=O)CCc1ccc(O)cc1)C(C)C)C(=O)O` (Desaminotyrosyl-VHPI-OH): the IC50 in experiment [1] and in experiment [2] was over 15000 nM throughout. In experiment [4], this compound came in with a Displacement of 0%.
With `CC[C@H](C)[C@H](NC(=O)[C@@H]1CCCN1C(=O)[C@H](Cc1c[nH]cn1)NC(=O)[C@@H](NC(=O)CCc1ccc(OC)cc1)C(C)C)C(=O)O` ({Propanoyl(3-(4-MeO-Ph))}-VHPI-OH), the IC50 in experiment [1] and in experiment [2] was over 15000 nM in each case. In experiment [4], this compound displayed a Displacement of 0%.
With `CNCC(=O)N[C@@H](CCCNC(=N)N)C(=O)N[C@H](C(=O)N[C@@H](Cc1ccc(O)cc1)C(=O)N[C@H](C(=O)N[C@@H](Cc1cnc[nH]1)C(=O)N1CCC[C@H]1C(=O)N[C@@H](C)C(=O)O)C(C)C)C(C)C` [SARALASIN], the IC50 in experiment [2] came out at 0.048 nM.

(Values after ChEMBL document CHEMBL1125608, “Synthesis and biological activity of angiotensin II analogues containing a Val-His replacement, Val psi[CH(CONH2)NH]His” (J Med Chem, 1991).)
